For data set [1], the system named is DU145 prostate cancer cell line. Put plainly: Cytotoxicity, MTT assay. Conditions: DU-145 cells, 50 μM for 3 days. Type of data set: cell-based. The protocol:
(§1) Prostate cancer cells DU145 (carcinoma) and fibroblast cells were cultured in […] (RPMI 1640 medium) supplemented with 10% fetal bovine serum (FBS) and 1% penicillin/streptomycin, and were grown at 37° C. with 5% CO2.
(§2) Tested molecules were dissolved and stored in DMSO at 20 mM concentration.
(§3) DU145 and fibroblast cells were seeded at 5×10^3 cells/well in 100 μl of medium in standard 96-well plates. The plates were incubated 24 h at 37° C. at an atmosphere of 5% CO2. Molecule solutions diluted in DMSO were serially diluted by RPMI 1640 medium from 60 μM to 0.02 μM and were added in 100 μl RPMI in quadruplicate.
After 72 h of incubation, 20 μL of 5 mg mL-1 MTT was added to each well according to the manufacturer's instructions. After 2 h of incubation at 37° C., the medium was removed, and 200 μl DMSO was added to each well to dissolve formazan crystals. The absorbance at 540 nm of each well was then monitored using an EnSpire multimode plate reader. Absorbance of each well was expressed as percentage of the control (wells with untreated cells), and the 50% inhibitory concentration (IC50) was determined. […] All data were expressed as the mean values±standard deviation. The IC50 values were calculated by linear regression analysis of the concentration-log response curves using the software GraphPad InStat 3.0. […]

For the next data set, the target named is T1, HsRad51 (Homo sapiens, UniProt Q06609).
T1 sequence (Q06609 1-339): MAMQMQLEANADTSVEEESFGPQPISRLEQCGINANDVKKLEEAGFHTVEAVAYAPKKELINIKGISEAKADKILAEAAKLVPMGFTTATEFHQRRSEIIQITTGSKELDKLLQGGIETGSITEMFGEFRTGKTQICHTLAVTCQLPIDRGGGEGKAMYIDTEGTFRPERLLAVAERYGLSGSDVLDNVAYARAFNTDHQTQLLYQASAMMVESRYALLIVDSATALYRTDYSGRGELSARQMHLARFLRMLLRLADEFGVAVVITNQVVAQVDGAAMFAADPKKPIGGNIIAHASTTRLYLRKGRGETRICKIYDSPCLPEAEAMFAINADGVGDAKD
Put plainly: RAD51 oligomerization by SDS-PAGE gel after crosslink. Type of data set: biochemical. To be noted: 2.5 μM HsRad51, disuccinimidyl suberate crosslink, SDS-PAGE/Western blot; FIG. 1. The protocol:
The reaction was performed at room temperature. 2.5 μm HsRad51 was incubated with the indicated concentrations of tested compounds for 10 min in a buffer containing 20 mm sodium phosphate, 50 mm NaCl, 1 mm MgCl 2, and 1 mm ATP. The cross-linking reactions were initiated by the addition of disuccinimidyl suberate (50 μm) and allowed to proceed for 30 min. Reactions were quenched by the addition of Tris-HCl (pH 7.5, final concentration: 50 mm) followed by subsequent incubations for 15 min. The products were then separated by 12% SDS polyacrylamide gel electrophoresis and detected by Western blot with mouse monoclonal anti-Rad51 antibody (NeoMarkers) and anti-mouse Alexa-Fluor 700-conjugated secondary antibody (Molecular Probes, Eugene, OR). The cross-linked dimer was quantified by an Odyssey Infrared Imaging System scanner (Li-Cor Biosciences) (Martinez, S. F. et al., “Targeting human Rad51 by specific DNA aptamers induces inhibition of homologous recombination”, Biochimie, December 2010, Vol. 92, No. 12, pp. 1832-1838).
The SDS-PAGE electrophoresis after crosslink maintains and immobilizes the RAD51 protein complexes and thus allows visualization of the degree of oligomerization (polymer formation) of the RAD51 protein. The effect of RAD51 protein inhibitors B-1, B-2, B-3, DIDS and X-4 on this key step of RAD51 protein recombinase activity has thus been evaluated. The results are presented on FIG. 1.

Another data set has as its target T2, Rad51 (Homo sapiens, UniProt Q06609).
T2 sequence (Q06609 1-339): T1 sequence (Q06609 1-339)
Put plainly: DNA invasion by D-loop assay (strand exchange). It counts as biochemical. To be noted: 0.5 μM Rad51, 1 μM 100-ssDNA, 37° C.; read-out: IC50 (RAD51 protein inhibition, D-loop formation). The protocol:
Labeled 100-ssDNA** (1 μM) was incubated with 0.5 μM Rad51 in presence or absence of the indicated amounts of the corresponding molecule in 10 μL of standard reaction buffer containing 20 mM Tris-HCl (pH 8), 1 mM ATP, 1 mM DTT, 1 mM CaCl2) at 37° C. for 20 min. The reaction was initiated by adding supercoiled pPB4.3 DNA (200 μM in bp). After incubation of 30 min at 37° C., the reactions were stopped and deproteinized by a stop solution (10 mM Tris-HCl pH 8, 10 mM MgCl2, 1% SDS, and 1 mg/mL proteinase K. The reaction mixtures were further incubated for 15 min at 37° C. After adding 5-fold loading dye (0.05% bromophenol blue, 8% glycerol, 1 mM EDTA), the reaction products were separated by electrophoresis on 1% agarose gel. The electrophoresis was carried out in 0.5×TAE buffer (20 mM Tris, 10 mM acetic acid and 1 mM EDTA) at 100 V for 2 h. The labeled products (100-ssDNA** and D-loop) were visualized and quantified by the detection of the IRD-700 dye with the 700 nm infrared fluorescent detection channel of an Odyssey Infrared Imager (LI-COR) (Normand, A. et al., Biochemical Pharmacology, October 2014, Vol. 91, No. 3, pp. 293-300).
The “D-loop” in vitro test allows the quantification of the formation of the strand exchange structure (D-loop) and thus the determination of the inhibitory power of a molecule during the strand exchange step of the recombinase mechanism. IC50 measuring the RAD51 protein inhibition in presence of compounds A-1 to A-5, […] and DIDS are then calculated.

For a further data set, the system named is fibroblast cells. Put plainly: Cytotoxicity, MTT assay. It counts as cell-based. Conditions: 50 μM for 3 days, FIG. 7. The protocol: as §1, §2, §3
After 72 h of incubation, 20 μL of 5 mg mL-1 MTT was added to each well according to the manufacturer's instructions. After 2 h of incubation at 37° C., the medium was removed, and 200 μl DMSO was added to each well to dissolve formazan crystals. The absorbance at 540 nm of each well was then monitored using an EnSpire multimode plate reader. Absorbance of each well was expressed as percentage of the control (wells with untreated cells), and the 50% inhibitory concentration (IC50) was determined. […] All data were expressed as the mean values±standard deviation. The IC50 values were calculated by linear regression analysis of the concentration-log response curves using the software GraphPad InStat 3.0.
On the technique in general: Tetrazolium dyes change colour on reduction, which living cells bring about.

For the next data set, the system named is DU-145 cell line. Nature of the data set: Clonogenicity test, sensitizing effect with an antineoplastic drug. Type of data set: cell-based. Conditions: DU-145, cisplatin alone; read-out: IC50 (clonogenic survival, cisplatin). The protocol: Clonogenicity tests are carried out against several model cell lines derived from cancer including prostate cancer (DU-145). Cells are exposed to an anti-cancer agent targeting DNA (cisplatin or camptothecin). Damaged cells are counted and seeded in the presence or in the absence of B-2 in triplicate culture plates. After about two weeks of incubation at 37° C. the number of clones formed is counted. Each cell capable of repairing its lesions will then form a clone. After counting, the percentage of survival will be calculated relative to the control condition for which it is considered that there is 100% survival.
The main interest of RAD51 protein inhibitors is the sensitization of chemo-resistant or radio-resistant cancerous cell lines. Clonogenicity evaluation was carried out on the DU-145 cell line treated with cisplatin treatment in the presence or in the absence of disulfonate stilbene B-2 (RAD51 protein inhibitor).
DU-145 cell line was treated with camptothecin in the presence or in the absence of disulfonate stilbene B-2 (RAD51 protein inhibitor) and the clonogenic cell survival was determined.

Data set [2] deals with RAD51 foci in DU-145 cells. Put plainly: Rad51 foci quantification by immunofluorescence. It counts as cell-based. Conditions: DU-145, cisplatin 30 μM for 1 hour, fixed after 18 h. The protocol: DU-145 cells were grown on coverslips (Life Technologies) at a density of 5×10^3 cells per well in medium (RPMI) supplemented with 10% fetal bovine serum (Gibco-Invitrogen). Cells were treated with Cisplatin at 30 μM for 1 hour in presence or in absence of RAD51 inhibitor B-2 at 20 μM, and then the medium was replaced with molecule-free medium. After 18 h, cells were washed once in PBS for 5 min and fixed with ethanol absolute for 25 min.
The fixed cells were incubated for 1 h in the PBS buffer containing 1:1000 diluted anti-RAD51 antibody at room temperature. After three 5-min washes in PBS, slides were incubated with PBS solution containing the secondary antibody conjugated with AlexaFluor 555 ([…]) for 45 min in dark room. […] The images were recorded with NIS Element software (Version 3.6, Nikon, Tokyo, Japan). The quantification of RAD51 foci was processed with a program derived from Fiji-ImageJ software (NIH, Bethesda, Maryland, USA). […]
The treatment with Cisplatin alone induces a high level of RAD51 foci, whereas this level is decreased when the treatment is associated with B-2 20 μM. After the quantification of the number of RAD51 foci per cell, the number of cells containing more than 20 RAD51 foci was determined.

In data set [1], `O=c1c2ccccc2nc(/C=C/c2cccnc2)n1Cc1ccccc1` [BPQ, (E)-3-benzyl-2-(2-(pyridin-3-yl)vinyl)quinazolin-4(3H)-one] yielded a mortality of cells of 90%. The cytotoxic effect result in data set [1] (FIG. 6) was “high cytotoxicity”.
One may read the IC50 as the midpoint of a concentration-inhibition curve. Take `O=S(=O)(O)c1cc(N=C=S)ccc1C=Cc1ccc(N=C=S)cc1S(=O)(=O)O` [DIDS, 4,4′-Diisothiocyano-2,2′-stilbene disulfonic acid, reference compound]: on HsRad51, the “oligomerization state of RAD51 protein” value is on record as “reduction”. In addition, the half-maximal inhibitory concentration (IC50) on Rad51 was 1 µM. Moreover, the cytotoxic effect entry in the data set on fibroblast cells is reported as “has a cytotoxic effect”.
In the case of `N.N.[Cl][Pt][Cl]` [Cisplatin, reference compound], the IC50 in the data set with DU-145 cell line was determined as 33 µM. Besides, the “level of RAD51 foci” value in data set [2] is reported as “high level”.

For the origin of these results see patent US12233041B2, “Disulfonate stilbenes for use in the treatment of proliferative diseases” (UNIVERSITÉ DE NANTES, priority 2018, dated 2025).
